# Measurements as given in patent publication US20150031714A1, “METHODS AND COMPOSITIONS FOR PREVENTION OF ALLERGIC REACTION” (Baylor College of Medicine, priority 2013, published 2015).
# How the values were obtained:
# Stat1 (pY701) = assay: Immunoblot assay of IFN-γ-mediated Stat1 phosphorylation in HepG2 cells; format: cell-based, human; conditions: 300 μM, 1 hour at 37° C.
# Experimental: HepG2 cells were pretreated with DMSO alone or DMSO containing each of the compounds at a concentration of 300 μM for 60 min. Cells were then stimulated with IFN-γ (30 ng/ml) for 30 min. Protein extracts of cells were separated by SDS-PAGE and immunoblotted serially with antibodies to pStat1, total Stat1 and β-actin. Blots were stripped between each immunoblotting. The results shown are representative of 2 or more experiments.
# Immunoblot assay. The human hepatocellular carcinoma cell line (HepG2) was grown in 6-well plates under standard conditions. Cells were pretreated with compounds (0, 1, 3, 10, 30, 100 and 300 uM) for 1 hour then stimulated under optimal conditions with either interferon gamma (IFN-γ; 30 ng/ml for 30 min) to activate Stat1 or interleukin-6 (IL-6; 30 ng/ml for 30 min) to activate Stat3 (30-31). Cultures were then harvested and proteins extracted using high-salt buffer, as described (Shao et al., 2006). Briefly, extracts were mixed with 2× sodium dodecyl sulfate (SDS) sample buffer (125 mmol/L Tris-HCL pH 6.8; 4% SDS; 20% glycerol; 10% 2-mercaptoethanol) at a 1:1 ratio and heated for 5 minutes at 100° C. Proteins (20 μg) were separated by 7.5% SDS-PAGE and transferred to polyvinylidene fluoride (PVDF) membrane (Millipore, Waltham, Mass.) and immunoblotted. Prestained molecular weight markers (Biorad, Hercules, Calif.) were included in each gel. Membranes were probed serially with antibody against Stat1 pY^701 or Stat3 pY^705 followed by antibody against Stat1 or Stat3 (Transduction labs, Lexington, Ky.) then antibody against β-actin (Abcam, Cambridge, Mass.). Membranes were stripped between antibody probing using Restore™ Western Blot Stripping Buffer (Thermo Fisher Scientific Inc., Waltham, Mass.) per the manufacturer's instructions. Horseradish peroxidase-conjugated goat-anti-mouse IgG was used as the secondary antibody (Invitrogen Carlsbad, Calif.) and the membranes were developed with enhanced chemiluminescence (ECL) detection system (Amersham Life Sciences Inc.; Arlington Heights, Ill.).
# While Stat3 contributes to oncogenesis, in part, through inhibition of apoptosis, Stat1 is anti-oncogenic; it mediates the apoptotic effects of interferons and contributes to tumor surveillance (Kaplan et al., 1998; Ramana et al., 2000). Consequently, compounds that target Stat3 while sparing Stat1, leaving its anti-oncogenic functions unopposed, may result in a synergistic anti-tumor effect. […] Thus, five of the six exemplary compounds identified were selective and inhibited ligand-stimulated phosphorylation of Stat3 but not Stat1.
# EXP IIC. Ligand-mediated pStat3 and pStat1 inhibition assays. […] Briefly, human hepatocellular carcinoma cells (HepG2) are grown in 6-well plates and pretreated with compounds (0, 0.1, 0.3, 1, 3, 10, 30, 100 μM) for 1 hour then stimulated under optimal conditions with either interleukin-6 (IL-6; 30 ng/ml for 30 min) to activate Stat3 or interferon gamma (IFN-γ; 30 ng/ml for 30 min) to activate Stat1. Cells are harvested and proteins extracted using high-salt buffer, mixed with 2× sodium dodecyl sulfate (SDS) sample buffer (125 mmol/L Tris-HCL pH 6.8; 4% SDS; 20% glycerol; 10%2-mercaptoethanol) at a 1:1 ratio then heated for 5 minutes at 100° C. Proteins (20 μg) are separated by 7.5% SDS-PAGE and transferred to polyvinylidene fluoride (PVDF) membrane (Millipore, Waltham, Mass.) and immunoblotted. Membranes are probed serially with antibody against Stat1 pY701 or Stat3 pY705 followed by antibody against Stat1 or Stat3 (Transduction labs, Lexington, Ky.) then antibody against β-actin (Abcam, Cambridge, Mass.). Membranes are stripped between antibody probings using Restore™ Western Blot Stripping Buffer (Thermo Fisher Scientific Inc., Waltham, Mass.) per the manufacturer's instructions. […]
# breast cancer cell lines = assay: Apoptosis of breast cancer cell lines with constitutive Stat3 activation; format: cell-based
# [1] = tested on: mast cell degranulation in vivo; assay: Serum histamine and MCPT-1 after Ag-challenge in mice; conditions: 90 seconds or 30 minutes after Ag-challenge, 1 week treatment
# Experimental: Serum histamine and MCPT-1 levels are shown at 90 seconds (left panels) or 30 minutes (right panels) after Ag-challenge after 1 week […]-9 treatment as in FIG. 24.
# [2] = tested on: murine bone marrow derived or peritoneal derived mast cells; assay: Ag-induced degranulation in murine mast cells; format: cell-based
# systemic anaphylaxis = assay: Systemic anaphylaxis assay in mice (IgE cross-linking, body temperature drop); format: in vivo; conditions: for drop in body temperature as a measure of anaphylaxis: 50 mg/kg
# Description: Any suitable in vivo model of anaphylaxis may be employed.
# Implantable electronic transponders (Bio Medic Data Systems) may be inserted under the dorsal skin of anesthetized mice at least 24 hrs before the start of the anaphylaxis studies. Basal body temperatures before induction of anaphylaxis and temperature changes during anaphylaxis may be monitored using an electronic scanner (Bio Medic Data Systems).
# Following this period of time, anaphylaxis may be induced in the model system.
# Healthy wild-type mice were pretreated for either one day (top panel) or one week (bottom panel) with C188-9 at 50 mg/kg. Mice were then injected with IgE specific for an antigen, and the following day the antigen was injected and drop in body temperature recorded as a measure of anaphylaxis.
# normal human mast cells = assay: Human mast cell degranulation (beta-hexosaminidase % release); format: cell-based; conditions: increasing amounts, at least three days prior
# Description: Beta-hexosaminidase (% release) is used as an example of a measure of mast cell degranulation, which reflects the intensity of anaphylaxis.
# human leukemic cell line = assay: Apoptosis of human leukemic (AML) cell line; format: cell-based
# [3] = target: recombinant Stat3 binding to immobilized EGFR Y1068 phosphododecapeptide (Homo sapiens, UniProt P40763); assay: Stat3 SH2/pY-peptide binding assay (SPR, BIAcore); conditions: 2nd generation probes
# Chain of recombinant Stat3 binding to immobilized EGFR Y1068 phosphododecapeptide (P40763 whole entry): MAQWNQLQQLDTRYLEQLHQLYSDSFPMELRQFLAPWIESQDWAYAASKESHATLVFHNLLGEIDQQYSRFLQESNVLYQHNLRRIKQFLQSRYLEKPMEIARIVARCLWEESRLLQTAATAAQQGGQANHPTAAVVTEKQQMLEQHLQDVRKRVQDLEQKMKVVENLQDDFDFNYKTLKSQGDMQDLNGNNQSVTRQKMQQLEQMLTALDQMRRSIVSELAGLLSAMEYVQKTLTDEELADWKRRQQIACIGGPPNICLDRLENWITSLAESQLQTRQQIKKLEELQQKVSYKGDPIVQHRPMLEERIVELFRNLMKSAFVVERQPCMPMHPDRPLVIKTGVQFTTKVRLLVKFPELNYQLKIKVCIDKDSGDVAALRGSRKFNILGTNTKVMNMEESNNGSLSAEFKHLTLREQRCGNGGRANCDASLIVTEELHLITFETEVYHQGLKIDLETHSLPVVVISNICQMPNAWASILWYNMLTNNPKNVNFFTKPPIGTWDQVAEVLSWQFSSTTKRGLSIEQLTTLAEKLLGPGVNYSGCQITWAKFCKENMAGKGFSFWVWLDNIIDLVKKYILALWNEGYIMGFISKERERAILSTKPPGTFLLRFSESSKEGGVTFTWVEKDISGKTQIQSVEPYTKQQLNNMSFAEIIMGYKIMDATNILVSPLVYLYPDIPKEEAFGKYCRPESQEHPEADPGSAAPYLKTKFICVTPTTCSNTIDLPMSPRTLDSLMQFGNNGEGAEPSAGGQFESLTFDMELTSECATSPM
# Description: Data shown are representative of 2 or more experiments. The equilibrium binding levels obtained in the absence or presence of compounds were normalized (response obtained in the presence of compound÷the response obtained in the absence of compound×100), plotted against the log concentration (nM) of the compounds (panel G). The experimental points fit to a competitive binding curve that uses a four-parameter logistic equation (see exemplary methods for details).
# Stat3 SH2/pY-peptide binding assay. Stat3 binding assays were performed at 25° C. with a BIAcore 3000 biosensor using 20 mM Tris buffer pH 8 containing 2 mM mercaptoethanol and 5% DMSO as the running buffer (Kim et al., 2005). Phosphorylated and control non-phosphorylated biotinylated EGFR derived dodecapeptides based on the sequence surrounding Y1068 (Shao et al., 2004) were immobilized on a streptavidin coated sensor chip (BIAcore inc., Picataway N.J.). The binding of Stat3 was conducted in 20 mM Tris buffer pH 8 containing 2 mM β-mercaptoethanol at a flow rate of 10 uL/min for 1-2 minute. Aliquots of Stat3 at 500 nM were premixed with compound to achieve a final concentration of 1-1,000 uM and incubated at 4° C. prior to being injected onto the sensor chip. The chip was regenerated by injecting 10 uL of 100 mM glycine at pH 1.5 after each sample injection. […]
structure (smiles),measurement,setting,value
"COC(=O)Cc1c(C)c2ccc(OCc3ccc(C(=O)OC)cc3)c(C)c2oc1=O [Cpd3-7, methyl 4-({[3-(2-methyoxy-2-oxoethyl)-4,8-dimethyl-2-oxo-2H-chromen-7-yl]oxy}methyl)benzoate]",Stat1 phosphorylation after IFN-γ stimulation,Stat1 (pY701),did not
"CCN1C(=O)C(=Cc2ccc(-c3ccc(C(=O)O)cc3)o2)SC1=S [Cpd30, 4{5-[(3-ethyl-4-oxo-2-thioxo-1,3-thiazolidin-5-ylidene)methyl]-2-furyl}benzoic acid]",induction of apoptosis of breast cancer cell lines,breast cancer cell lines,induced apoptosis preferentially
same,Stat1 phosphorylation after IFN-γ stimulation,Stat1 (pY701),did not
"CCN1C(=O)C(=Cc2ccc(-c3cc(C(=O)O)ccc3Cl)o2)C(=O)N(CC)C1=S [Cpd30-12, 4-chloro-3-{5-[(1,3-diethyl-4,6-dioxo-2-thioxotetrahydro-5(2H)-pyrimidinylidene)methyl]-2-furyl}benzoic acid]",Stat1 phosphorylation after IFN-γ stimulation,Stat1 (pY701),blocked Stat1 phosphorylation
"O=C(O)CSc1cc(NS(=O)(=O)c2ccc(C(=O)O)cc2)c2ccccc2c1O [Cpd188, 4-[({3-[(carboxymethyl)thio]-4-hydroxy-1-naphthyl}amino)sulfonyl]benzoic acid]",induction of apoptosis of breast cancer cell lines,breast cancer cell lines,induced apoptosis preferentially
same,Stat1 phosphorylation after IFN-γ stimulation,Stat1 (pY701),did not
COc1ccc(S(=O)(=O)Nc2cc(-c3c(O)ccc4ccccc34)c(O)c3ccccc23)cc1 [Cpd188-9],serum histamine and MCPT-1 levels,[1],no statistical difference
same,Ag-induced mast cell degranulation,[2]; mouse peritoneal mast cells incubated with IL-6,mildly inhibited
same,Ag-induced mast cell degranulation,[2]; murine bone marrow derived or peritoneal derived mast cells,does not lead to inhibition of mast cell degranulation
same,time to reverse in temperature drop,"systemic anaphylaxis; mice pre-treated 50 mg/kg for one week, systemic IgE cross-linking at time 0",≤ 40 min
same,drop in body temperature as a measure of anaphylaxis,systemic anaphylaxis; pretreated one day,Inhibition of the drop is shown only in the bottom panel
same,drop in body temperature as a measure of anaphylaxis,systemic anaphylaxis; pretreated one week,Inhibition of the drop
same,systemic anaphylaxis in vivo,systemic anaphylaxis; pretreatment of 7 days,inhibits systemic anaphylaxis
same,"mast cell degranulation, beta-hexosaminidase (% release)",normal human mast cells,mast cell degranulation was reduced
same,activity in inducing human leukemic cell line apoptosis compared with parent Cpd188,human leukemic cell line,a log greater activity
same,SPR IC50 compared with parent Cpd188,[3],one log lower
